Values of other authors as cited in US20110028498A1, “METHOD FOR EVALUATING PATIENTS FOR TREATMENT WITH DRUGS TARGETING RET RECEPTOR TYROSINE KINASE” (priority 2006, published 2011).

System: RET-dependent thyroid tumour cell growth
Conditions: in vitro, literature

COc1cc2c(Nc3ccc(Br)cc3F)ncnc2cc1OCC1CCN(C)CC1 [vandetanib, 4-(4-bromo-2-fluoroanilino)-6-methoxy-7-(1-methylpiperidin-4-ylmethoxy)quinazoline]
growth-inhibitory effect on RET-dependent thyroid tumour cell growth: strong growth-inhibitory effect
